The values that follow come from patent publication US10457663B2, “Pyrazol-pyridine derivatives” (Hoffmann-La Roche Inc., priority 2016, dated 2019).

Series [1] deals with T1, human EAAT3 (Homo sapiens, UniProt P43005).
T1 construct: expressed in transfected cells; host or cells: HEK-293
T1 sequence (P43005 1-524): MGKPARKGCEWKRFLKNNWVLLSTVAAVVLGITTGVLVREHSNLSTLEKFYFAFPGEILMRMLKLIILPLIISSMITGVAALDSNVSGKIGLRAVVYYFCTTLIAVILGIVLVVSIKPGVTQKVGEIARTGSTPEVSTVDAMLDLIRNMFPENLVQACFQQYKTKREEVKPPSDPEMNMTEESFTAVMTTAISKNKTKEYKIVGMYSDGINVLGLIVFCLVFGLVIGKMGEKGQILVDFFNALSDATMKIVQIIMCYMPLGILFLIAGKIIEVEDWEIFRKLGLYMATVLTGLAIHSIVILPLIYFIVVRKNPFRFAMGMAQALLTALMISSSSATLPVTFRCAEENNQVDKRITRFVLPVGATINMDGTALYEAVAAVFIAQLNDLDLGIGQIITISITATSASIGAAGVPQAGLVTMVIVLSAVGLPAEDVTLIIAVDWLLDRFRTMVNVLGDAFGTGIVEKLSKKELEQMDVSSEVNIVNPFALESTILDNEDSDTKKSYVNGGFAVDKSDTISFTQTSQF
Briefly: FLIPR Membrane Potential (FMP) assay. In kind it is cell-based. Particulars: HEK-293 cells stably expressing human EAAT3; L-glutamate as agonist at EC80; antagonist applied 15 min before; Kb by Cheng-Prusoff from IC50. How it is done: The FLIPR Membrane Potential (FMP) assay
HEK-293 cells stably expressing human EAAT3 were seeded at 55 000 cells/well in growth medium (DMEM glutamate free (Invitrogen 11960-044), 1% Pen Strep (10 ml/l GIBCO BRL N^o 15140-023), 10% FCS non dialysed heat inactivated, 5 mg/l puromycin) in poly-D-lysine treated 96-well black microtiter plates with clear-bottom. After 24 h, the growth medium was removed and 100 μl/well of Krebs buffer (140 mM NaCl, 4.7 mM KCl, 2.5 mM CaCl2), 1.2 mM MgCl2, 11 mM HEPES, 10 mM D-glucose, pH=7.4) added. The cells were then loaded by adding 100 μl/well FMP assay dye (FLIPR Membrane Potential assay reagent, Molecular Devices). The 96-well plates were then incubated at 37° C. for 1 h. The depolarization of the cells will cause more dye to enter in the cells, where it will bind to intracellular proteins and lipids and cause an increase in the fluorescence signal. Antagonist potency at human EAAT3 was determined by using L-glutamate as agonist at a concentration which gives 80% of the maximum response. The antagonists were applied 15 min before the application of the agonist L-glutamate. The assays were performed at room temperature and measurements done by using a Fluorometric Imaging Plate Reader (FLIPR, Molecular Devices) and filter #2. Responses were measured as peak increase in fluorescence minus basal (i.e. fluorescence without addition of L-glutamate). Kb was determined using the Cheng-Prusoff equation Kb=IC50/[1+(A/EC50)], where IC50 is the concentration of the antagonist producing 50% inhibition, A is the concentration of the agonist against which the IC50 is being determined (at EC80) and EC50 is the concentration of the agonist producing 50% […].

Molecules are shown by their SMILES.

By melting point is commonly meant the temperature of the solid-liquid transition. Broadly, the Kb is the affinity of an antagonist, worked out from how it opposes an agonist. Low values mean a more potent antagonist, high ones a less potent antagonist. As to `CC(C)n1nccc1-c1cc(C(=O)NC(C)(C)C)cc(-c2ccc(F)cc2)n1` [Example 8, N-tert-Butyl-2-(4-fluorophenyl)-6-(2-propan-2-yl-pyrazol-3-yl)-pyridine-4-carboxamide], the melting point was determined as 200 °C. The same molecule returned a Kb in series [1] of 0.26 µM. Take `CC(C)(CO)NC(=O)c1cc(-c2ccc(F)cc2)nc(-c2ccnn2C(C)(C)C)c1` [Example 16, 2-(2-tert-Butyl-pyrazol-3-yl)-6-(4-fluorophenyl)-N-(1-hydroxy-2-methyl-propan-2-yl)-pyridine-4-carboxamide]: the melting point stood at 142 °C. The Kb in series [1] is 0.08 µM. The like results for `CC(C)n1nccc1-c1cc(C(=O)NC(C)(C)C2CC2)cc(-c2ccc(Cl)cc2)n1` [Example 49, 2-(4-Chlorophenyl)-N-(2-cyclopropyl-propan-2-yl)-6-(2-propan-2-yl-pyrazol-3-yl)-pyridine-4-carboxamide] were, in that order, 164 °C and 3.1 µM.

`COc1ccc(-c2cc(C(=O)NC(C)(C)C)cc(-c3ccnn3C(C)(C)C)n2)cc1` [Example 23, N-tert-Butyl-2-(2-tert-butyl-pyrazol-3-yl)-6-(4-methoxy-phenyl)-pyridine-4-carboxamide] displayed a Kb in series [1] of 0.085 µM. With `CC(C)(C)NC(=O)c1cc(-c2ccc(F)cc2)nc(-c2ccnn2C2CC2)c1` [Example 48, N-tert-Butyl-2-(2-cyclopropyl-pyrazol-3-yl)-6-(4-fluorophenyl)-pyridine-4-carboxamide], the melting point was 175 °C. The molecule further had a Kb in series [1] of 0.24 µM. On the same counts, the results for `CC(C)(C)NC(=O)c1cc(-c2ccc(C(F)(F)F)cc2)nc(-c2ccnn2CC2CC2)c1` [Example 42, N-tert-Butyl-2-[2-(cyclopropylmethyl)-pyrazol-3-yl]-6-[4-(trifluoromethyl)-phenyl]-pyridine-4-carboxamide] are 203 °C and 0.38 µM. The like results for `CC(C)n1nccc1-c1cc(C(=O)NC(C)(C)C)cc(-c2ccccc2)n1` [Example 28, N-tert-Butyl-2-phenyl-6-(2-propan-2-yl-pyrazol-3-yl)-pyridine-4-carboxamide] were, in that order, 197 °C and 0.31 µM. The like results for `CC(C)n1nccc1-c1cc(C(=O)NC(C)(C)C)cc(-c2ccc(Cl)cc2)n1` [Example 7, N-tert-Butyl-2-(4-chlorophenyl)-6-(2-propan-2-yl-pyrazol-3-yl)-pyridine-4-carboxamide] were, in that order, 207 °C and 0.37 µM. On to `CCC(C)(C)NC(=O)c1cc(-c2ccc(F)cc2)nc(-c2ccnn2C(C)(C)C)c1` [Example 10, 2-(2-tert-Butylpyrazol-3-yl)-6-(4-fluorophenyl)-N-(2-methylbutan-2-yl)-pyridine-4-carboxamide], for which the melting point worked out at 154 °C. This molecule yielded a Kb in series [1] of 0.14 µM. On the same counts, the results for `CC(C)n1nccc1-c1cc(C(=O)NC(C)(C)C#N)cc(-c2ccc(Cl)cc2)n1` [Example 52, 2-(4-Chlorophenyl)-N-(2-cyanopropan-2-yl)-6-(2-propan-2-yl-pyrazol-3-yl)-pyridine-4-carboxamide] are 206 °C and 0.44 µM. With `CC(C)n1nccc1-c1cc(C(=O)NC(C)(C)C)cc(-c2ccc(C#N)cc2)n1` [Example 30, N-tert-Butyl-2-(4-cyano-phenyl)-6-(2-propan-2-yl-pyrazol-3-yl)-pyridine-4-carboxamide], the Kb in series [1] was 1.87 µM.

Consider `CC(C)(C#N)NC(=O)c1cc(-c2ccc(Cl)cc2)nc(-c2ccnn2C(C)(C)C)c1` [Example 56, 2-(2-tert-Butyl-pyrazol-3-yl)-6-(4-chlorophenyl)-N-(2-cyano-propan-2-yl)-pyridine-4-carboxamide], for which the melting point was determined as 230 °C. This molecule also displayed a Kb in series [1] of 0.21 µM. The like results for `CC(C)(C)NC(=O)c1cc(-c2ccccc2)nc(-c2ccnn2C(C)(C)C)c1` [Example 27, N-tert-Butyl-2-(2-tert-butyl-pyrazol-3-yl)-6-phenyl-pyridine-4-carboxamide] were, in that order, 209 °C and 0.094 µM.

`CC(C)(C)NC(=O)c1cc(-c2ccc(F)c(Cl)c2)nc(-c2ccnn2C(C)(C)C)c1` [Example 21, N-tert-Butyl-2-(2-tert-butyl-pyrazol-3-yl)-6-(3-chloro-4-fluoro-phenyl)-pyridine-4-carboxamide] came in with a Kb in series [1] of 0.11 µM. This counts as sub-micromolar. Same read-out and setting: the value for `Cc1cc(-c2cc(C(=O)NC(C)(C)C)cc(-c3ccnn3C(C)(C)C)n2)ccc1F` [Example 25, N-tert-Butyl-2-(2-tert-butyl-pyrazol-3-yl)-6-(4-fluoro-3-methyl-phenyl)-pyridine-4-carboxamide] was 0.074 µM; that for `CC(C)(C)NC(=O)c1cc(-c2ccc(C3CC3)cc2)nc(-c2ccnn2C(C)(C)C)c1` [Example 17, N-tert-Butyl-2-(2-tert-butyl-pyrazol-3-yl)-6-(4-cyclopropyl-phenyl)-pyridine-4-carboxamide] was 0.11 µM. The same measure, in the same setting: the value for `CC(C)(C)NC(=O)c1cc(-c2ccc(C#N)cc2)nc(-c2ccnn2C(C)(C)C)c1` [Example 18, N-tert-Butyl-2-(2-tert-butyl-pyrazol-3-yl)-6-(4-cyano-phenyl)-pyridine-4-carboxamide] was 0.089 µM; that for `CC(C)c1ccc(-c2cc(C(=O)NC(C)(C)C)cc(-c3ccnn3C(C)C)n2)cc1` [Example 32, N-tert-Butyl-2-(4-propan-2-yl-phenyl)-6-(2-propan-2-yl-pyrazol-3-yl)-pyridine-4-carboxamide] was 1.18 µM; that for `CC(C)n1nccc1-c1cc(C(=O)NC(C)(C)C#N)cc(-c2ccc(F)cc2)n1` [Example 45, N-(2-Cyanopropan-2-yl)-2-(4-fluorophenyl)-6-(2-propan-2-yl-pyrazol-3-yl)-pyridine-4-carboxamide] was 0.45 µM. Same read-out and setting: the value for `COc1ccc(-c2cc(C(=O)NC(C)(C)C)cc(-c3ccnn3C(C)C)n2)cc1` [Example 35, N-tert-Butyl-2-(4-methoxy-phenyl)-6-(2-propan-2-yl-pyrazol-3-yl)-pyridine-4-carboxamide] was 0.36 µM; that for `CC(C)n1nccc1-c1cc(C(=O)NC(C)(C)C)cc(-c2ccc(C3CC3)cc2)n1` [Example 29, N-tert-Butyl-2-(4-cyclopropyl-phenyl)-6-(2-propan-2-yl-pyrazol-3-yl)-pyridine-4-carboxamide] was 0.56 µM; that for `Cc1ccc(-c2cc(C(=O)NC(C)(C)C)cc(-c3ccnn3C(C)C)n2)cc1F` [Example 38, N-tert-Butyl-2-(3-fluoro-4-methyl-phenyl)-6-(2-propan-2-yl-pyrazol-3-yl)-pyridine-4-carboxamide] was 0.4 µM. As to `CC(C)n1nccc1-c1cc(C(=O)NC(C)(C)C)cc(-c2ccc(Cl)c(F)c2)n1` [Example 36, N-tert-Butyl-2-(4-chloro-3-fluorophenyl)-6-(2-propan-2-yl-pyrazol-3-yl)-pyridine-4-carboxamide], the Kb in series [1] is 0.23 µM. On the same count and under the same terms, in the case of `CC(C)n1nccc1-c1cc(C(=O)NC2(C)CCS(=O)(=O)C2)cc(-c2ccc(F)cc2)n1` (racemic) [Example 43, (RS)-2-(4-Fluorophenyl)-N-(3-methyl-1,1-dioxothiolan-3-yl)-6-(2-propan-2-yl-pyrazol-3-yl)-pyridine-4-carboxamide] it was 0.53 µM; in that of `CC(C)n1nccc1-c1cc(C(=O)NC(C)(C)C)cc(-c2ccc(F)c(Cl)c2)n1` [Example 33, N-tert-Butyl-2-(3-chloro-4-fluorophenyl)-6-(2-propan-2-yl-pyrazol-3-yl)-pyridine-4-carboxamide], 0.53 µM; in that of `CC(C)n1nccc1-c1cc(C(=O)NC(C)(C)C)cc(-c2ccc(F)c(F)c2)n1` [Example 31, N-tert-Butyl-2-(3,4-difluoro-phenyl)-6-(2-propan-2-yl-pyrazol-3-yl)-pyridine-4-carboxamide], 0.24 µM.

On to `Cc1ccc(-c2cc(C(=O)NC(C)(C)C)cc(-c3ccnn3C(C)C)n2)cc1` [Example 34, N-tert-Butyl-2-(4-methyl-phenyl)-6-(2-propan-2-yl-pyrazol-3-yl)-pyridine-4-carboxamide], for which the Kb in series [1] amounted to 0.26 µM.
